Measured values published in patent publication US7462605B2, “Phosphoramidate compounds and methods of use” (Celmed Oncology (USA), Inc., priority 2002, dated 2008).
Like-named read-outs stand apart in the source and are kept apart here.

Tests used:
W138 (Lung) normal cells = experiment: alamarBlue growth inhibition, W138; assay type: cell-based, human; settings: 120 hours
Protocol: (§1) Growth Inhibition Studies. Cells growing exponentially were transferred to 384-well flat bottom tissue culture plates. All cell types were plated at a density of 500 cells per well in 25 μL of complete medium (RPMI 1640+10% fetal bovine serum+antibiotics/antimycotics). After 24 hours (day 0), 25 μL of complete medium containing the experimental compounds over the dose range of 10^ñ3 to 10^ñ10 M were added in triplicate. […] 5 μL of the redox indicator, alamarBlue, was added to each well (10% v/v). After 4 hours incubation at 37° C., fluorescence was monitored at 535 nm excitation and 595 nm emission.
(§2) Concentration vs. relative fluorescence units (RFU) were plotted, and sigmoid curves were fit using the Hill equation.

NHA (Brain) normal cells = experiment: alamarBlue growth inhibition, NHA; assay type: cell-based, human; settings: 120 hours
Protocol: as §1, §2

[1] = test system: NHOST (Bone) normal cells; experiment: alamarBlue growth inhibition, NHOST; assay type: cell-based, human; settings: 120 hours
Protocol: as §1, §2

[2] = test system: NHEPF (Liver) normal cells; experiment: alamarBlue growth inhibition, NHEPF; assay type: cell-based, human; settings: 120 hours
Protocol: as §1, §2

[3] = test system: H630R10 5FU-resistant colon tumor cells; experiment: alamarBlue growth inhibition, H630R10; assay type: cell-based, human
Protocol: as §1, §2

[4] = test system: COLO205 (Colon) tumor cells; experiment: alamarBlue growth inhibition, COLO205; assay type: cell-based, human; settings: 120 hours
Protocol: as §1, §2

[5] = test system: SKCO1 (Colon) tumor cells; experiment: alamarBlue growth inhibition, SKCO1; assay type: cell-based, human; settings: 120 hours
Protocol: as §1, §2

[6] = test system: MCF7 (Breast) tumor cells; experiment: alamarBlue growth inhibition, MCF7; assay type: cell-based, human
Protocol: as §1, §2

[7] = test system: SW527 (Breast) tumor cells; experiment: alamarBlue growth inhibition, SW527; assay type: cell-based, human; settings: 120 hours
Protocol: as §1, §2

[8] = test system: NCI H520 (Lung) tumor cells; experiment: alamarBlue growth inhibition, NCI H520; assay type: cell-based, human; settings: 120 hours
Protocol: as §1, §2

SKLU1 (Lung) tumor cells = experiment: alamarBlue growth inhibition, SKLU1; assay type: cell-based, human; settings: 120 hours
Protocol: as §1, §2

[9] = test system: PANC1 (Pancreas) tumor cells; experiment: alamarBlue growth inhibition, PANC1; assay type: cell-based, human; settings: 120 hours
Protocol: as §1, §2

[10] = test system: SKOV3 (Ovary) tumor cells; experiment: alamarBlue growth inhibition, SKOV3; assay type: cell-based, human; settings: 120 hours
Protocol: as §1, §2

[11] = test system: PC3 (Prostate) tumor cells; experiment: alamarBlue growth inhibition, PC3; assay type: cell-based, human; settings: 120 hours
Protocol: as §1, §2

[12] = test system: SKHEP1 (Liver) tumor cells; experiment: alamarBlue growth inhibition, SKHEP1; assay type: cell-based, human; settings: 120 hours
Protocol: as §1, §2

TSL/HT1080 cells = experiment: alamarBlue cytotoxicity, HT1080 expressing low GFP-TS; assay type: cell-based, human; settings: TSL/HT1080, TS Level 409%
Protocol: (§3) Cell lines and transfection. HT1080 cells were grown in PRM11640 medium supplemented with 10% fetal calf serum, and transfected with GFP-TS expression vector. 48 hours after, transfection cells were tripsinized and replated in culture medium containing 750 μg/ml G418. After selection with G418 for two weeks, surviving cells were sorted based upon fluorescence expression. One clone with higher fluorescence expression (named as TSH/HT1080) and one clone with lower fluorescence expression (named as TSL/HT1080) were selected and expanded into cells lines. The stable HT1080 cells transfected with pEGFP-C3 were used as control.
(§4) Construction of GFP-TS expression vector. […] The cDNA was cloned into HindIII and KpnI sites of mammalian expression vector pEGFP-C3 (Clontech Laboratories. Inc., Palo Alto, Calif.), in-frame with GFP sequence. The cDNA insert was confirmed by DNA sequencing.
(§5) Growth Inhibition Studies. Cells growing exponentially were transferred to 384-well flat bottom tissue culture plates. All cell types were plated at a density of 500 cells per well in 25 μL of complete medium (RPMI 1640+10% fetal bovine serum+antibiotics/antimycotics). […] After 4 hours incubation at 37° C., fluorescence was monitored at 535 nm excitation and 595 nm emission.
as §2

TSH/HT1080 cells = experiment: alamarBlue cytotoxicity, HT1080 expressing high GFP-TS; assay type: cell-based, human; settings: second line printed TSL/HT1080, TS Level 702%
Protocol: as §3, §4, §5, §2

[13] = test system: MCF7 TDX (Tomudex-resistant MCF7 breast cancer cells); experiment: alamarBlue cytotoxicity, MCF7 TDX; assay type: cell-based, human
Protocol: as §1, §2
Reversal of Resistance. The origin and characteristics of the human breast cancer MCF7 TDX cell line have been previously described (Drake, et al. (1996)). Briefly, MCF-7 breast cancer cells were selected in vitro for resistance to Tomudex by continuous exposure to stepwise increases in TDX concentrations up to 2.0 μM. […] After a dramatic initial cell killing effect, resistant colonies emerged, and vigorously growing monolayers were formed. TS protein level and IC50 for 5-FU, TDX, and NB1011 were determined for the resultant MCF7 TDX/1011 cell line as described in above by western blot and the alamarBlue cytotoxicity assay, respectively.

RKO colon cancer cells = experiment: alamarBlue cytotoxicity, RKO parental; assay type: cell-based, human; settings: Drug Selection None, read-out: NB1011-IC50
Protocol: as §1, §2
(§6) Cells were grown and characterized as described above. TS expression level is relative to CCD18co, a normal colon epithelial cell line. Tritium release is background substracted as described in Methods. ND=Not detectable above background.

N1S1 cells = experiment: alamarBlue cytotoxicity, N1S1 parental; assay type: cell-based; settings: N1S1, Drug Selection None; read-out: NB1011-IC50
Protocol: as §1, §2, §6

[14] = test system: TDX-resistant MCF7 breast tumor cells; experiment: Tomudex inhibition of NB1011 cytotoxicity (Tomudex rescue assay, alamarBlue); settings: for IC50: read-out: NB1011 IC50
Protocol: Tomudex Inhibition of NB1011 Cytotoxicity. MCF7-TDX were transferred to a 384 well assay plate at 500 cells in 25 μL complete medium per well. After 24 hours (day 0), 25 μL complete medium containing a combination of NB1011 in doubling serial dilutions from 1 mM and tomudex at discrete concentrations (0,1,10,100,1000 nM) were added in duplicate. Drug exposure time was 120 hours (day 5) after which growth inhibition was measured with alamarBlue as described above in Growth Inhibition Studies (above).
Tomudex is a chemotherapeutic that acts primarily via inhibition of TS. If NB1011 exerts cytotoxicity via the TS enzyme, then inhibition of TS with Tomudex should decrease NB1011-mediated cytotoxicity. […] Cells were plated and exposed to indicated concentrations of compound(s) as described above.

[15] = test system: H630R10 (5FU Resistant) human colon carcinoma; experiment: H630-10 5-FU resistant colon carcinoma xenografts in athymic mice; settings: 1.25, 2.5, 3.5 mg daily × 5 days, IP or IT/peritumoral; from Day 6 to Day 25
Protocol: Tumor measurements began on the first day of treatment (Day 1).
Following cell expansion ex-vivo H630-10 were injected subcutaneously (S.Q.) at 1.5×10^7 cells/tumor in the mid-back region of 4-6 week old, female, CD-1 (nu/nu), athymic mice (Charles River Laboratories, Wilmington, Mass.). Tumor volumes, calculated as the product of length, width, and depth, were monitored twice weekly by serial micrometer measurements by a single observer. Six animals were randomly assigned to each treatment group and statistical tests were performed (single-factor ANOVA) to assure uniformity in starting tumor volumes between treatment and control groups at the beginning of the experiment. […] To assure accurate dosing, drug doses were individualized based upon animal weights determined immediately prior to each injection. […] Differences in day 25 xenograft volumes between groups were analyzed by single-factor ANOVA of the log transformed tumor volume data.

5-(2-Bromovinyl)-2′-deoxyuridine phenyl N-methoxy-L-alaninyl phosphoramidate [NB1011]
IC50 (W138 (Lung) normal cells): 335 µM | IC50 (NHA (Brain) normal cells): 839 µM | IC50 [1]: 642 µM | IC50 [2]: 2080 µM | IC50 ([3]; H630 Colon cancer, Drug Selection 5FU, read-out: NB1011-IC50): 65 µM | NB1011 activity diminished, compared to NB1011 alone ([3]; H630R10, in the presence of 3 μM LV, alamarBlue): more than 90% | IC50 ([3]; H630R10, comparison with 5FUdR, read-out: IC50): 217 µM | IC50 ([3]; Tumor Cells: H630R10 (Colon), alamarBlue, 120 hours, read-out: IC50): 65 µM | IC50 [4]: 105 µM | IC50 [5]: 184 µM | IC50 ([6]; MCF7, alamarBlue, read-out: IC50): 291 µM | IC50 ([6]; MCF7 Breast cancer, Drug Selection None, read-out: NB1011-IC50): 327 µM | IC50 ([6]; Tumor Cells: MCF7 (Breast), alamarBlue, 120 hours, read-out: IC50): 141 µM | IC50 [7]: 431 µM | IC50 [8]: 135 µM | IC50 (SKLU1 (Lung) tumor cells): 270 µM | IC50 [9]: 492 µM | IC50 [10]: 484 µM | IC50 [11]: 184 µM | IC50 [12]: 247 µM | IC50 (TSL/HT1080 cells): 196 µM | IC50 (TSH/HT1080 cells): 0.8 µM | IC50 ([13]; MCF7 Breast cancer, Drug Selection TDX, read-out: NB1011-IC50): 2.8 µM | IC50 ([13]; MCF7 TDX, alamarBlue, read-out: IC50): 2 µM | IC50 (RKO colon cancer cells): 136 µM | IC50 (N1S1 cells): 494 µM | inhibition of NB1011-mediated cytotoxicity by blockade of TS with Tomudex ([14]; maximum (up to)): about 25 fold | IC50 ([14]; [Tomudex] 0 nM): 5.7 µM | IC50 ([14]; [Tomudex] 1 nM): 25.5 µM | IC50 ([14]; [Tomudex] 10 nM): 87.7 µM | IC50 ([14]; [Tomudex] 100 nM): 140 µM | IC50 ([14]; [Tomudex] 1000 nM): 103 µM | tumor growth (xenograft volume) [15]: significant difference between the NB1011 groups vs. either the 5FU or excipient controls
